Measured values published in patent publication US10988792B2, “Methods for antimicrobial resistance determination” (bioMerieux, Inc., priority 2009, dated 2021).

Tests used:
[1] = system: S. aureus strains ATCC 25923 (MSSA) and D14906 (MRSA); assay: Titration of BOCILLIN-FL binding
Procedure: Samples of S. aureus strains ATCC 25923 (MSSA) and D14906 (MRSA) were grown in BacT/ALERT SA culture media at 37° C. for about 6 hours until an OD 660 nm of about 0.35 was reached. Dilutions of BOCILLIN™-FL (0.1 ml) were prepared in SA medium and placed into culture tubes. Samples of the bacterial suspension (0.9 ml) were added to the tubes and mixed. The tubes were capped and placed in a 37° C. incubator for 60 minutes. Samples (1.0 ml) were transferred to microfuge tubes containing 0.2 ml of the same oil blend used in Example 1, centrifuged for 1 minute, aspirated, and the pellet was resuspended in 0.1 ml PBS and then added to 3.0 ml PBS, pH 7.4 in an acrylic cuvette. The sample was scanned in the FluoroLog-3 system at an excitation wavelength of 490 nm and the fluorescence emission at 510 nm was recorded.

[2] = system: S. aureus ATCC 25923 (MSSA); assay: BOCILLIN-FL metabolic labeling (culturing cells with BOCILLIN-FL); format: binding; settings: for MSSA/MRSA Ratio: MSSA (25923)/MRSA (D14906); for BOCILLIN-FL binding, fluorescence emission at 510 nm (excitation 490 nm), raw data: MSSA (25923)
Procedure: (§1) Two experimental approaches were used to test BOCILLIN™-FL (Molecular Probes, Invitrogen) binding to S. aureus: (1) treating cells with sodium hydroxide (NaOH), neutralizing, adding BOCILLIN™-FL, then separating the cells (harsh pretreatment); and (2) culturing cells with BOCILLIN™-FL, then separating the cells (metabolic labeling).
(§2) For the second method, the two bacterial suspensions (13 ml) were mixed with BOCILLIN™-FL (175 μl of 1.0 mg/ml stock). The mixtures were aliquoted in 1.0 ml samples into microfuge tubes containing 0.2 ml of oil blend. The tubes were incubated at 37° C. for various time-points (keeping 1 set of tubes on ice for the T0 time-point). One set of tubes was removed at 30 minutes and the cells separated from free BOCILLIN™-FL by washing twice with PBS. One set of tubes was removed at 30, 52, 68, and 86 minutes and the cells separated from free BOCILLIN™-FL by centrifugation through the oil blend. The cells were recovered and resuspended in 3 ml PBS. The samples were scanned in the FluoroLog-3 system at an excitation wavelength of 490 nm and the fluorescence emission at 510 nm was recorded.

S. aureus D14906 (MRSA) = assay: as above; format: binding
Procedure: as §1, §2

[3] = system: Twenty different strains of S. aureus (10 MRSA and 10 MSSA strains); assay: BOCILLIN-FL binding to a panel of MRSA and MSSA strains; settings: signal Ex490_Em510 normalized to tryptophan Ex285_Em350; 50 μM BOCILLIN-FL (0.1 ml) + 0.9 ml strain, 30 minutes at 37° C. (FIG. 4)
Procedure: Twenty different strains of S. aureus (10 MRSA and 10 MSSA strains, confirmed with cefoxitin discs and Vitek-2) were propagated. A loopful of growth (1 μL) was removed from 24-hour plates and suspended in BacT/ALERT SA culture media (8 ml in a glass screw-capped tube). The tubes were vortexed well and incubated at 36° C. for 6 hours. The OD of each suspension was measured at 660 nm and adjusted to approximately the same density (0.50-0.75 OD; sample #12166 was only 0.28). 50 μM BOCILLIN™-FL (0.1 ml) was placed into each of 20 labeled microfuge tubes. A sample of each strain (0.9 ml) was added to each tube, mixed, and incubated at 37° C. for 30 minutes. The reaction mixture was then removed and added to a second set of tubes containing 0.2 ml of an oil blend (1.000 part type DF immersion oil plus 0.875 part Drakeol 5 mineral oil). The tubes were centrifuged for 2 minutes at 10,000 rpm in an A-8-11 rotor (Eppendorf 5417R). The supernatant and most of the oil was aspirated with a vacuum device. The remaining oil was removed using a Gilson P200 tip and the pellet was resuspended in 100 μl PBS. The cells were transferred to an acrylic cuvette containing 3 ml PBS and read in the FluoroLog 3 system using the FluoroScan “Bocillin” points listed in Table 3. Additionally, Vitek AST cards were run on each of the 20 isolates (from the same 24 hour plates).

[4] = system: S. aureus strains ATCC 25923 (MSSA) and D14906 (MRSA); assay: Time course of BOCILLIN-FL binding
Procedure: Samples of S. aureus strains ATCC 25923 (MSSA) and D14906 (MRSA) were grown in BacT/ALERT SA culture media at 37° C. until exponential growth was reached (8-10 hours). The OD 660 nm of each culture was measured and both suspensions were adjusted to 0.50 with pre-warmed SA media. BOCILLIN™-FL was diluted in pre-warmed SA media, filtered through a 0.2 μm filter and kept at 37° C. Samples of the bacteria (9.0 ml) were mixed with 1.0 ml of 100 μM BOCILLIN™-FL, mixed well, and dispensed as ten 1.0 ml aliquots into microfuge tubes containing 0.2 ml of the same oil blend used in Example 1. All tubes except the T0 tube were placed at 37° C. Tubes were removed and processed at 6, 11, 16, 22, 45, 60, 75, and 91 minutes. Each tube was centrifuged for 1 minute, the supernatant was aspirated, and the pellet was resuspended in 0.1 ml PBS and then added to 3.0 ml PBS in an acrylic cuvette. The sample was scanned in the FluoroLog-3 system at an excitation wavelength of 490 nm and the fluorescence emission at 510 nm was recorded.

[5] = 30′ at 37° C., washed x 2 (PBS)

## Cc1cc(C)n2c1C=C1C=CC(CCC(=O)Nc3ccc(OCC(=O)N[C@@H]4C(=O)N5[C@@H]4SC(C)(C)[C@@H]5C(=O)[O-])cc3)=[N+]1[B-]2(F)F.[Na+] [BOCILLIN™-FL]
[1]; MSSA strain, second order polynomial curve fit
  Shape of the MSSA binding curve: biphasic
[1]; at about 0.5 μM BOCILLIN-FL
  Difference in binding between the MSSA and MRSA strains: 4 fold
[1]; at about 5 μM BOCILLIN-FL
  Difference in binding between the MSSA and MRSA strains: 3 fold
[1]; depending on the BOCILLIN-FL concentration, 60 minutes at 37° C. (FIG. 3)
  BOCILLIN-FL bound by the MSSA strain, more than the MRSA strain, per cell basis: 2-4 fold
[2]; BOCILLIN-FL signal normalized to the microbial tryptophan signal (FIG. 1)
  BOCILLIN-FL bound by the MRSA strain, less than the MSSA strain, per cell basis: 3-4 fold
[2]; 30′ at 37° C., separation Oil
  MSSA/MRSA Ratio: 5.60
  BOCILLIN-FL binding, fluorescence emission at 510 nm (excitation 490 nm), raw data: 1,831,790
[2]; [5]
  MSSA/MRSA Ratio: 2.00
  BOCILLIN-FL binding, fluorescence emission at 510 nm (excitation 490 nm), raw data: 410,830
[2]; 52′ at 37° C., separation Oil
  MSSA/MRSA Ratio: 5.35
  BOCILLIN-FL binding, fluorescence emission at 510 nm (excitation 490 nm), raw data: 1,941,930
[2]; 68′ at 37° C., separation Oil
  MSSA/MRSA Ratio: 7.17
  BOCILLIN-FL binding, fluorescence emission at 510 nm (excitation 490 nm), raw data: 2,481,450
[2]; 86′ at 37° C., separation Oil
  MSSA/MRSA Ratio: 4.48
  BOCILLIN-FL binding, fluorescence emission at 510 nm (excitation 490 nm), raw data: 2,285,980
[2]; T0 (ice), separation Oil
  MSSA/MRSA Ratio: 2.36
  BOCILLIN-FL binding, fluorescence emission at 510 nm (excitation 490 nm), raw data: 2,745,600
[2]; raw data (Table 2), metabolic labeling
  BOCILLIN-FL bound by the MRSA strain, less than the MSSA strain: 2-7 fold
S. aureus D14906 (MRSA); 30′ at 37° C., separation Oil
  BOCILLIN-FL binding, fluorescence emission at 510 nm (excitation 490 nm), raw data: 326.790
S. aureus D14906 (MRSA); [5]
  BOCILLIN-FL binding, fluorescence emission at 510 nm (excitation 490 nm), raw data: 206,250
S. aureus D14906 (MRSA); 52′ at 37° C., separation Oil
  BOCILLIN-FL binding, fluorescence emission at 510 nm (excitation 490 nm), raw data: 363,000
S. aureus D14906 (MRSA); 68′ at 37° C., separation Oil
  BOCILLIN-FL binding, fluorescence emission at 510 nm (excitation 490 nm), raw data: 346,270
S. aureus D14906 (MRSA); 86′ at 37° C., separation Oil
  BOCILLIN-FL binding, fluorescence emission at 510 nm (excitation 490 nm), raw data: 510,150
S. aureus D14906 (MRSA); T0 (ice), separation Oil
  BOCILLIN-FL binding, fluorescence emission at 510 nm (excitation 490 nm), raw data: 1,163,240
[3]
  BOCILLIN-FL bound by the five benzyl-penicillin sensitive strains versus the fifteen benzyl-penicillin resistant strains: over twice the amount
[4]; 1.0 ml of 100 μM BOCILLIN-FL mixed with 9.0 ml bacteria, irrespective of the culture time
  BOCILLIN-FL bound by the MSSA strain, more than the MRSA strain, per cell basis: 2-3 times
[4]; room temperature (the T0 tube), oil method
  Time at which maximal binding was measured: 5 min
